Target: T1, Cys12 of the KRAS 4B G12C protein (Homo sapiens, UniProt P01116, G12C)
T1 construct: This protein contained 188 amino acids in total, including an N-terminal 6-Histidine tag; made in house; host or cells: E. coli BL21
Assay: In vitro covalent adduct formation (CAF) assay, LC-MS intact mass
Type: binding
Settings: 10 uM compound, 60 min
In short: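 GDP-loaded (>95%) His-TEV-tagged KRAS 4B G12C (residues 1–169), 5 μM in TBS pH 7.4, incubated with 10 μM compound (4% DMSO) at 22° C for one hour. Intact-protein LC-MS gave free:adduct ratios, reported as percent protein modified; duplicate runs.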

Compound: C=CC(=O)N1C[C@H](C)N(c2nc(=O)n3c4c(c(-c5cccc6cnn(C)c56)c(Cl)cc24)SC[C@@H]3CN2CCN(C3CC3)CC2)C[C@H]1C [Example 1310, (3S)-7-((2S,5R)-4-acryloyl-2,5-dimethylpiperazin-1-yl)-9-chloro-3-((4-cyclopropylpiperazin-1-yl)methyl)-10-(1-methyl-1H-indazol-7-yl)-2,3-dihydro-5H-[1,4]thiazino[2,3,4-ij]quinazolin-5-one]
- % CAF 10 uM @ 60 min: 95%

Compound: C=CC(=O)N1CCN(c2nc(=O)n3c4c(c(-c5cc(Cl)c(F)cc5F)c(C(F)(F)F)cc24)SC[C@@H]3CN2C[C@@H]3C[C@H]2CO3)CC1 [Example 1311]
- % CAF 10 uM @ 60 min: 95.4%

Compound: C=CC(=O)N1[C@H](C)CN(c2nc(=O)n3c4c(c(-c5ccc(F)c(Cl)c5)c(C(F)(F)F)cc24)SC[C@@H]3COC)C[C@@H]1C [Example 1316, (S)-7-((3S,5R)-4-acryloyl-3,5-dimethylpiperazin-1-yl)-10-(3-chloro-4-fluorophenyl)-3-(methoxymethyl)-9-(trifluoromethyl)-2,3-dihydro-5H-[1,4]thiazino[2,3,4-ij]quinazolin-5-one]
- % CAF 10 uM @ 60 min: 96%

Compound: C=CC(=O)N1CCN(c2nc(=O)n3c4c(c(-c5ccc(F)cc5)c(C(F)(F)F)cc24)SC[C@@H]3CN2CCN(C3CC3)CC2)CC1 [Example 1321, (S)-7-(4-acryloylpiperazin-1-yl)-3-((4-cyclopropylpiperazin-1-yl)methyl)-10-(4-fluorophenyl)-9-(trifluoromethyl)-2H-[1,4]thiazino[2,3,4-ij]quinazolin-5(3H)-one]
- % CAF 10 uM @ 60 min: 99.3%

Compound: C=CC(=O)N1C[C@H](C)N(c2nc(=O)n3c4c(c(-c5ccc(F)cc5)c(C(F)(F)F)cc24)SC[C@@H]3COCOC)C[C@H]1C [Example 1328, (S)-7-((2S,5R)-4-acryloyl-2,5-dimethylpiperazin-1-yl)-10-(4-fluorophenyl)-3-((methoxymethoxy)methyl)-9-(trifluoromethyl)-2,3-dihydro-5H-[1,4]thiazino[2,3,4-ij]quinazolin-5-one]
- % CAF 10 uM @ 60 min: 93.8%

Compound: C=CC(=O)N1[C@H](C)CN(c2nc(=O)n3c4c(c(-c5ccc(F)cc5)c(C(F)(F)F)cc24)SC[C@@H]3CN2CCN(C3CC3)CC2)C[C@@H]1C [Example 1333, (S)-7-((3S,5R)-4-acryloyl-3,5-dimethylpiperazin-1-yl)-3-((4-cyclopropylpiperazin-1-yl)methyl)-10-(4-fluorophenyl)-9-(trifluoromethyl)-2,3-dihydro-5H-[1,4]thiazino[2,3,4-ij]quinazolin-5-one]
- % CAF 10 uM @ 60 min: 61%

Compound: C=CC(=O)N1[C@H](C)CN(c2nc(=O)n3c4c(c(-c5ccc(F)c(Cl)c5)c(C(F)(F)F)cc24)SC[C@H](N2CCOCC2)C3)C[C@@H]1C [Example 1336, (R)-8-((3S,5R)-4-acryloyl-3,5-dimethylpiperazin-1-yl)-11-(3-chloro-4-fluorophenyl)-3-morpholino-10-(trifluoromethyl)-3,4-dihydro-2H,6H-[1,4]thiazepino[2,3-4-ij]quinazolin-6-one]
- % CAF 10 uM @ 60 min: 85.5%

Compound: C=CC(=O)N1[C@H](C)CN(c2nc(=O)n3c4c(c(-c5ccc(F)c(OC(F)F)c5)c(Cl)cc24)SC[C@@H]3COC)C[C@@H]1C [Example 1343, (S)-7-((3S,5R)-4-acryloyl-3,5-dimethylpiperazin-1-yl)-9-chloro-10-(3-(difluoromethoxy)-4-fluorophenyl)-3-(methoxymethyl)-2,3-dihydro-5H-[1,4]thiazino[2,3,4-ij]quinazolin-5-one]
- % CAF 10 uM @ 60 min: 96%

Compound: C=CC(=O)N1[C@H](C)CN(c2nc(=O)n3c4c(c(-c5ccc(F)cc5F)c(Cl)cc24)SC[C@@H]3COC)C[C@@H]1C [Example 1343a, (3S)-7-((3S,5R)-4-acryloyl-3,5-dimethylpiperazin-1-yl)-9-chloro-10-(2,4-difluorophenyl)-3-(methoxymethyl)-2,3-dihydro-5H-[1,4]thiazino[2,3,4-ij]quinazolin-5-one]
- % CAF 10 uM @ 60 min: 96.8%

Compound: C=CC(=O)N1[C@H](C)CN(c2nc(=O)n3c4c(c(-c5ccc(F)cc5)c(C(F)(F)F)cc24)SC[C@@H]3CN2CCN(CC)CC2)C[C@@H]1C [Example 1344, (S)-7-((3S,5R)-4-acryloyl-3,5-dimethylpiperazin-1-yl)-3-((4-ethylpiperazin-1-yl)methyl)-10-(4-fluorophenyl)-9-(trifluoromethyl)-2,3-dihydro-5H-[1,4]thiazino[2,3,4-ij]quinazolin-5-one]
- % CAF 10 uM @ 60 min: 96%

Compound: C=CC(=O)N1CCN(c2nc(=O)n3c4c(c(-c5ccc(F)c(Cl)c5)c(C(F)(F)F)cc24)SC[C@@H]3COC)CC1 [Example 1345, (S)-7-(4-acryloylpiperazin-1-yl)-10-(3-chloro-4-fluorophenyl)-3-(methoxymethyl)-9-(trifluoromethyl)-2,3-dihydro-5H-[1,4]thiazino[2,3,4-ij]quinazolin-5-one]
- % CAF 10 uM @ 60 min: 90%

Compound: C=CC(=O)N1CCN(c2nc(=O)n3c4c(c(-c5ccc(F)cc5)c(C(F)(F)F)cc24)SC[C@@H]3CN2C[C@@H]3C[C@H]2CO3)CC1 [Example 1350, (S)-3-(((1S,4S)-2-oxa-5-azabicyclo[2.2.1]heptan-5-yl)methyl)-7-(4-acryloylpiperazin-1-yl)-10-(4-fluorophenyl)-9-(trifluoromethyl)-2,3-dihydro-5H-[1,4]thiazino[2,3,4-ij]quinazolin-5-one]
- % CAF 10 uM @ 60 min: 81.3%

Compound: C=CC(=O)N1C[C@H](C)N(c2nc(=O)n3c4c(c(-c5ccc(F)cc5)c(C(F)(F)F)cc24)SC[C@@H]3CN2C[C@@H]3C[C@H]2CO3)C[C@H]1C [Example 1351, (S)-3-(((1S,4S)-2-oxa-5-azabicyclo[2.2.1]heptan-5-yl)methyl)-7-((2S,5R)-4-acryloyl-2,5-dimethylpiperazin-1-yl)-10-(4-fluorophenyl)-9-(trifluoromethyl)-2,3-dihydro-5H-[1,4]thiazino[2,3,4-ij]quinazolin-5-one]
- % CAF 10 uM @ 60 min: 64.8%

Compound: C=CC(=O)N1[C@H](C)CN(c2nc(=O)n3c4c(c(-c5ccc(F)cc5)c(C(F)(F)F)cc24)SC[C@@H]3CN2C[C@@H]3C[C@H]2CO3)C[C@@H]1C [Example 1352, (S)-3-(((1S,4S)-2-oxa-5-azabicyclo[2.2.1]heptan-5-yl)methyl)-7-((3S,5R)-4-acryloyl-3,5-dimethylpiperazin-1-yl)-10-(4-fluorophenyl)-9-(trifluoromethyl)-2,3-dihydro-5H-[1,4]thiazino[2,3,4-ij]quinazolin-5-one]
- % CAF 10 uM @ 60 min: 96.1%

Compound: C=CC(=O)N1[C@H](C)CN(c2nc(=O)n3c4c(c(-c5ccc(F)c(Cl)c5)c(C(F)(F)F)cc24)SCC2(COC2)C3)C[C@@H]1C [Example 1353, 8′-((3S,5R)-4-acryloyl-3,5-dimethylpiperazin-1-yl)-11′-(3-chloro-4-fluorophenyl)-10′-(trifluoromethyl)-2′H,4′H,6′H-spiro[oxetane-3,3′-[1,4]thiazepino[2,3,4-ij]quinazolin]-6′-one]
- % CAF 10 uM @ 60 min: 96.4%

Compound: C=CC(=O)N1C[C@H](C)N(c2nc(=O)n3c4c(c(-c5ccc(F)c(Cl)c5)c(C(F)(F)F)cc24)SCC2(COC2)C3)C[C@H]1C [Example 1354, 8′-((2S,5R)-4-acryloyl-2,5-dimethylpiperazin-1-yl)-11′-(3-chloro-4-fluorophenyl)-10′-(trifluoromethyl)-2′H,4′H,6′H-spiro[oxetane-3,3′-[1,4]thiazepino[2,3,4-ij]quinazolin]-6′-one]
- % CAF 10 uM @ 60 min: 96%

Compound: C=CC(=O)N1CCN(c2nc(=O)n3c4c(c(-c5ccc(F)c(Cl)c5)c(C(F)(F)F)cc24)SCC2(COC2)C3)CC1 [Example 1357, 8-(4-acryloylpiperazin-1-yl)-11-(3-chloro-4-fluorophenyl)-10-(trifluoromethyl)-2H-spiro[[1,4]thiazepino[2,3,4-ij]quinazoline-3,3′-oxetan]-6(4H)-one]
- % CAF 10 uM @ 60 min: 92.4%

Compound: C=CC(=O)N1C[C@H](C)N(c2nc(=O)n3c4c(c(-c5cc(Cl)c(F)cc5F)c(C(F)(F)F)cc24)SCC2(COC2)C3)C[C@H]1C [Example 1357a]
- % CAF 10 uM @ 60 min: 74.3%

Compound: C=CC(=O)N1CCN(c2nc(=O)n3c4c(c(-c5ccc(F)cc5)c(C(F)(F)F)cc24)SC[C@@H]3COCOC)CC1 [Example 1358, (S)-7-(4-acryloylpiperazin-1-yl)-10-(4-fluorophenyl)-3-((methoxymethoxy)methyl)-9-(trifluoromethyl)-2H-[1,4]thiazino[2,3,4-ij]quinazolin-5(3H)-one]
- % CAF 10 uM @ 60 min: 96.3%

Compound: C=CC(=O)N1[C@H](C)CN(c2nc(=O)n3c4c(c(-c5ccc(F)c(Cl)c5)c(C(F)(F)F)cc24)SC[C@@H]3COCOC)C[C@@H]1C [Example 1359, (S)-7-((3S,5R)-4-acryloyl-3,5-dimethylpiperazin-1-yl)-10-(3-chloro-4-fluorophenyl)-3-((methoxymethoxy)methyl)-9-(trifluoromethyl)-2,3-dihydro-5H-[1,4]thiazino[2,3,4-ij]quinazolin-5-one]
- % CAF 10 uM @ 60 min: 74.6%

Compound: C=CC(=O)N1CCN(c2nc(=O)n3c4c(c(-c5ccc(F)c(Cl)c5)c(C(F)(F)F)cc24)SC[C@@H]3COCOC)CC1 [Example 1362, (S)-7-(4-acryloylpiperazin-1-yl)-10-(3-chloro-4-fluorophenyl)-3-((methoxymethoxy)methyl)-9-(trifluoromethyl)-2,3-dihydro-5H-[1,4]thiazino[2,3,4-ij]quinazolin-5-one]
- % CAF 10 uM @ 60 min: 96.2%

Compound: C=CC(=O)N1C[C@H](C)N(c2nc(=O)n3c4c(c(-c5ccc(F)c(Cl)c5)c(C(F)(F)F)cc24)SC[C@@H]3COCOC)C[C@H]1C [Example 1363, (S)-7-((2S,5R)-4-acryloyl-2,5-dimethylpiperazin-1-yl)-10-(3-chloro-4-fluorophenyl)-3-((methoxymethoxy)methyl)-9-(trifluoromethyl)-2,3-dihydro-5H-[1,4]thiazino[2,3,4-ij]quinazolin-5-one]
- % CAF 10 uM @ 60 min: 92.1%

Source: US20230107642A1 (Erasca, Inc., priority 2020, published 2023)
